Experimental data taken from patent US12285407B2, “Bis-indolylmethane derivatives and uses thereof” (The University of The West Indies, priority 2018, dated 2025).
Read-outs that look alike come from different tables or passages of the source.

What was measured:
Klebsiella pneumoniae = assay: Adjuvant broth microdilution (antibiotic MIC with SP-BIM at 50 μg/mL); format: cell-based; conditions: Klebsiella pneumoniae; antibiotic alone; Table 7; read-out: MIC of antibiotic, No compound
MRSA = assay: as above; format: cell-based, Staphylococcus aureus; conditions: Staphylococcus aureus, antibiotic alone, Table 4, read-out: MIC of antibiotic, No compound
Streptococcus pneumoniae = assay: as above; format: cell-based; conditions: Streptococcus pneumoniae, Streptococcus pneumonia, SP-BIM at 50 μg mL^−1
[1] = tested on: Bacillus cereus ATCC 14579; assay: Broth microdilution MIC of SP-BIMs; format: cell-based
[2] = tested on: Escherichia coli ATCC 35218; assay: Broth microdilution MIC of SP-BIMs; format: cell-based
[3] = tested on: Staphylococcus aureus ATCC 12600; assay: Broth microdilution MIC of SP-BIMs; format: cell-based
[4] = tested on: Streptococcus pyogenes ATCC 19615; assay: Broth microdilution MIC of SP-BIMs; format: cell-based
[5] = tested on: Pseudomonas aeruginosa ATCC 27853; assay: Broth microdilution MIC of SP-BIMs; format: cell-based
[6] = tested on: Enterococcus faecium ATCC 19434; assay: Broth microdilution MIC of SP-BIMs; format: cell-based
[7] = tested on: Candida albicans ATCC 22972; assay: Broth microdilution MIC of SP-BIMs; format: cell-based
[8] = tested on: Salmonella typhimurium ATCC 14028; assay: Broth microdilution MIC of SP-BIMs; format: cell-based; conditions: Salmonella enterica, read-out: MIC Salmonella tvpkimurium ATCC 14028
Description: Reference microorganisms used in this study included: Bacillus cereus (American Type Culture Collection (ATCC) No. 14579), Streptococcus pyogenes (ATCC No. 19615), Staphylococcus aureus (ATCC No. 12600), Enterococcus faecium (ATCC No. 19434), Corynebacterium diphtheriae (ATCC No. 27010), Escherichia coli (ATCC No. 35218), Salmonella typhimurium (ATCC No. 14028), Pseudomonas aeruginosa (ATCC No. 27853), Klebsiella pneumoniae (ATCC No. 49472), and Candida albicans (ATCC No. 22972).
Prior to each experiment, cultures were streaked onto clean BHI agar plates and incubated at 35° C. for 24 hours. Colonies of the respective cultures were selected and inoculated in phosphate buffer saline (pH 7.5) to a 0.5 McFarland turbidity standard (equivalent to 10^8 CFU mL^−1). The bacterial suspension was then diluted 1:100 in cation adjusted Mueller Hinton Broth (ca-MHB) (Oxoid Ltd, Basingstoke, Hampshire, England).
Stock solutions (50 mg mL^−1) of the SP-BIM test compounds were prepared in DMSO and stored at 4° C. Working preparations of each compound was made up to 1 mg/mL in sterile deionized water with a final DMSO concentration of 10%.
To assess the antibiotic properties of the library of SP-BIMs, the broth microdilution assay was performed in 96-well microplates according to the Clinical and Laboratory Standards Institute 2014 Guidelines (CLSI 2014). The broth microdilution assay was used to determine the minimum inhibitory concentration (MIC). […] Bacterial cells (˜10^6 CFU mL^−1) were inoculated into cation adjusted-Mueller Hinton broth containing the test compound in a twofold serial dilution ranging between 250 μg mL^−1 and 0.02 μg mL^−1. Plates were incubated at 35° C. for 18 hours after which 50 μL of 5% resazurin solution was added to each well. Resazurin is a blue dye which, upon reduction by living cells, turns to a pink resorufin product. Plates were shaken for 1 hour after the addition of the dye. The MIC was recorded as the well with the lowest concentration of test compound where no color change was observed.

[9] = tested on: Corynebacterium diphtheriae ATCC 27010; assay: Broth microdilution MIC of SP-BIMs; format: cell-based
[10] = tested on: Klebsiella pneumoniae ATCC 49472; assay: Broth microdilution MIC of SP-BIMs; format: cell-based
[11] = read-out: MIC of Kanamvcin with SP-BIM
[12] = read-out: MIC of Vancomvcin with SP-BIM
[13] = ATCC14579, SP-BIM alone, read-out: MIC Bacillus cereus ATCC 14579
[14] = ATCC35218, SP-BIM alone, read-out: MIC Escherichia coli ATCC 35218
[15] = ATCC12600, SP-BIM alone, read-out: MIC Staphylococcus aureus ATCC 12600
[16] = ATCC19615, SP-BIM alone, read-out: MIC Streptococcus pyogenes ATCC 19615
[17] = ATCC27853, SP-BIM alone, read-out: MIC Pseudomonas aeruginosa ATCC 27853
[18] = ATCC19434, SP-BIM alone, read-out: MIC Enterococcus faecium ATCC 19434
[19] = ATCC22972, SP-BIM alone, read-out: MIC Candida albicans ATCC 22972
[20] = ATCC27010, SP-BIM alone, read-out: MIC Corynebacterium diphtheriae ATCC 27010
[21] = ATCC49472, SP-BIM alone, read-out: MIC Klebisella pneumoniae ATCC 49472

Row | Structure (SMILES) | MIC (Streptococcus pneumoniae; [11]) | MIC (Streptococcus pneumoniae; [12]) | MIC [1, 13] | MIC [2, 14] | MIC [3, 15] | MIC [4, 16] | MIC [5, 17] | MIC [6, 18] | MIC [7, 19] | MIC [8] | MIC [9, 20] | MIC [10, 21] | also measured
1 | C[C@@H](O)[C@H]1C(=O)N2C(C(=O)O)=C(SCCN=CN)C[C@H]12 [Imipenem, imipenem] |  |  |  |  |  |  |  |  |  |  |  |  | MIC (Klebsiella pneumoniae): 2 µg/mL; MIC (MRSA): 4 µg/mL
2 | O=[N+]([O-])c1ccc(C(c2c[nH]c3ccccc23)c2c[nH]c3ccccc23)cc1 [SP-BIM 8] | 125 µg/mL | 1 µg/mL | > 250 µg/mL | > 250 µg/mL | > 250 µg/mL | > 250 µg/mL | 250 µg/mL | > 250 µg/mL | 250 µg/mL | 250 µg/mL | > 250 µg/mL | > 250 µg/mL | 
3 | COc1ccccc1C(c1c[nH]c2ccccc12)c1c[nH]c2ccccc12 [SP-BIM 12, bis(indol-3-yl)-2-methoxyphenylmethane] | 125 µg/mL | 1 µg/mL | > 250 µg/mL | > 250 µg/mL | > 250 µg/mL | > 250 µg/mL | 250 µg/mL | > 250 µg/mL | 250 µg/mL | 250 µg/mL | > 250 µg/mL | > 250 µg/mL | 
4 | c1ccc2c(c1)cc(C(c1c[nH]c3ccccc13)c1c[nH]c3ccccc13)c1ccccc12 [SP-BIM 14, bis[indol-3-yl)-phenanthren-9-ylmethane] | 125 µg/mL | 1 µg/mL |  |  |  |  |  |  |  | 250 µg/mL |  |  | MIC ([1]; ATCC14579, read-out: MIC Bacillus cereus ATCC 14579): 125 µg/mL; MIC ([2]; ATCC35218, read-out: MIC Escherichia coli ATCC 35218): > 250 µg/mL; MIC ([3]; ATCC12600, read-out: MIC Staphylococcus aureus ATCC 12600): > 250 µg/mL; MIC ([4]; ATCC19615, read-out: MIC Streptococcus pyogenes ATCC 19615): 125 µg/mL; MIC ([5]; ATCC27853, read-out: MIC Pseudomonas aeruginosa ATCC 27853): 250 µg/mL; MIC ([6]; ATCC19434, read-out: MIC Enterococcus faecium ATCC 19434): 125 µg/mL; MIC ([7]; ATCC22972, read-out: MIC Candida albicans ATCC 22972): 250 µg/mL; MIC ([9]; ATCC27010, read-out: MIC Corynebacterium diphtheriae ATCC 27010): > 250 µg/mL; MIC ([10]; ATCC49472, read-out: MIC Klebisella pneumoniae ATCC 49472): > 250 µg/mL
5 | Oc1cc(Br)ccc1[C+](c1c[nH]c2ccccc12)c1c[nH]c2ccccc12 [SP-BIM 17, 4-bromo-2-hydroxyphenylbis(indol-3-yl)methylium] | 125 µg/mL | 1 µg/mL | > 250 µg/mL | > 250 µg/mL | > 250 µg/mL | > 250 µg/mL | 250 µg/mL | > 250 µg/mL | 250 µg/mL | 250 µg/mL | > 250 µg/mL | > 250 µg/mL | 
6 | COc1ccc2c(C(c3cccc(O)c3)c3c[nH]c4cc(OC)ccc34)c[nH]c2c1 [SP-BIM 19, bis(6-methoxyindoly-3-yl)-3-hydroxyphenylmethane] | 125 µg/mL | 1 µg/mL | > 250 µg/mL | > 250 µg/mL | > 250 µg/mL | > 250 µg/mL | 250 µg/mL | > 250 µg/mL | 250 µg/mL | 250 µg/mL | > 250 µg/mL | > 250 µg/mL | 
7 | COc1ccc2c(C(c3ccc([N+](=O)[O-])cc3)c3c[nH]c4cc(OC)ccc34)c[nH]c2c1 [SP-BIM 20, bis(6-methoxyindol-3-yl)-4-nitrophenylmethane] | 125 µg/mL | 1 µg/mL | > 25 µg/mL | > 250 µg/mL | > 250 µg/mL | > 250 µg/mL | 250 µg/mL | > 250 µg/mL | 250 µg/mL | 250 µg/mL | > 250 µg/mL | > 250 µg/mL | 
